# In article PMC7957578, “N-(1,3,4-Oxadiazol-2-yl)Benzamides as Antibacterial Agents against Neisseria gonorrhoeae” (International Journal of Molecular Sciences, 2021):
# Like-named read-outs stand apart in the source and are kept apart here.
# Assays:
# [1] = system: L. monocytogenes ATCC 19115; test: MIC/MBC (CLSI broth microdilution) against L. monocytogenes ATCC 19115; assay type: cell-based; conditions: Listeria monocytogenes, ATCC19115, L. monocytogenes ATCC 19115; for MBC: read-out: MBC; for MIC: read-out: MIC
# [2] = system: tested bacterial strains (Table 3); test: MBC versus MIC against the panel of Gram-positive and Gram-negative pathogens; assay type: cell-based; conditions: MBCs more than three-fold higher than MICs, strains of Table 3
# Description: While the focus of these new N-(1,3,4-oxadiazol-2-yl)benzamides is towards N. gonorrhoeae, we proceeded to test their activity against other Gram-positive and Gram-negative pathogens. Intriguingly, HSGN-235, HSGN-237, and HSGN-238 had potent activity against the tested Gram-positive bacterial pathogens. For instance, all three compounds had potent activity against the staphylococcal strains, with MICs ranging from 0.25 to 1 µg/mL (Table 3). Furthermore, HSGN-235, HSGN-237, and HSGN-238 maintained potent activity against clinically relevant Gram-positive bacterial pathogens such as vancomycin-resistant enterococci (VRE) and Listeria monocytogenes (Table 3). Additionally, we moved to test if HSGN-235, HSGN-237, and HSGN-238 were active against other Gram-negative bacterial pathogens. […] This lack of activity against Gram-negative bacteria appears to be due to HSGN-235, HSGN-237, and HSGN-238 being a substrate for efflux.
# The minimum inhibitory concentrations (MICs) of the tested compounds and control drugs, linezolid, vancomycin, and gentamicin, were determined using the broth microdilution method according to the guidelines outlined by the Clinical and Laboratory Standards Institute (CLSI) against clinically relevant bacterial (Staphylococcus aureus, MRSA, Escherichia coli, Enterococcus faecalis and Enterococcus faecium strains. S. aureus, MRSA, E. coli, Enterococcus faecalis and Enterococcus faecium were grown aerobically overnight on tryptone soy agar (TSA) plates at 37° C. Afterwards, a bacterial solution equivalent to 0.5 McFarland standard was prepared and diluted in cation-adjusted Mueller–Hinton broth (CAMHB) (for S. aureus, MRSA, and E. coli) to achieve a bacterial concentration of about 5 × 10^5 CFU/mL. Enterococcus faecalis and Enterococcus faecium 0.5 McFarland standard solution was diluted in tryptone soy broth (TSB) to achieve a bacterial concentration of about 5 × 10^5 CFU/mL. Compounds and control drugs were added in the first row of 96-well plates and serially diluted with the corresponding media containing bacteria. […]
# MRSA USA300 = test: MIC/MBC (CLSI broth microdilution) against MRSA USA300; assay type: cell-based, methicillin-resistant Staphylococcus aureus; conditions: Staphylococcus aureus, MRSA USA300; for MBC: read-out: MBC; for MIC: read-out: MIC
# Description: (§1) The minimum inhibitory concentrations (MICs) of the tested compounds and control drugs, linezolid, vancomycin, and gentamicin, were determined using the broth microdilution method according to the guidelines outlined by the Clinical and Laboratory Standards Institute (CLSI) against clinically relevant bacterial (Staphylococcus aureus, MRSA, Escherichia coli, Enterococcus faecalis and Enterococcus faecium strains. S. aureus, MRSA, E. coli, Enterococcus faecalis and Enterococcus faecium were grown aerobically overnight on tryptone soy agar (TSA) plates at 37° C. Afterwards, a bacterial solution equivalent to 0.5 McFarland standard was prepared and diluted in cation-adjusted Mueller–Hinton broth (CAMHB) (for S. aureus, MRSA, and E. coli) to achieve a bacterial concentration of about 5 × 10^5 CFU/mL. Enterococcus faecalis and Enterococcus faecium 0.5 McFarland standard solution was diluted in tryptone soy broth (TSB) to achieve a bacterial concentration of about 5 × 10^5 CFU/mL. Compounds and control drugs were added in the first row of 96-well plates and serially diluted with the corresponding media containing bacteria. Plates were then incubated as previously described. […] The minimum bactericidal concentration (MBC) was tested by spotting 4 µL from wells with no growth onto TSA plates. Plates were incubated at 37 ° C for at least 18 h before recording the MBC. The MBC was categorized as the lowest concentration that reduced bacterial growth by 99.9% [45, 46, 47].
# N. gonorrhoeae = test: MIC against N. gonorrhoeae in presence of fetal bovine serum; assay type: cell-based; conditions: Neisseria gonorrhoeae, 24 h
# E. faecalis ATCC 29212 = test: MIC/MBC (CLSI broth microdilution) against E. faecalis ATCC 29212; assay type: cell-based; conditions: Enterococcus faecalis, ATCC29212, E. faecalis ATCC 29212; for MBC: read-out: MBC; for MIC: read-out: MIC
# Description: as §1
# S. aureus ATCC 25923 = test: MIC/MBC (CLSI broth microdilution) against S. aureus ATCC 25923; assay type: cell-based; conditions: Staphylococcus aureus, ATCC25923, S. aureus ATCC 25923; for MBC: read-out: MBC; for MIC: read-out: MIC
# Description: as §1
# [3] = system: E. coli JW55031 (TolC Mutant); test: MIC/MBC (CLSI broth microdilution) against E. coli TolC mutant; assay type: cell-based; conditions: Escherichia coli
# Description: as §1
# [4] = system: N. gonorrhoeae strain 181; test: MIC by broth microdilution against N. gonorrhoeae strain 181; assay type: cell-based, Neisseria gonorrhoeae
# Description: (§2) Briefly, bacteria were grown overnight on chocolate agar II at 37° C in the presence of 5% CO2. Afterwards, a bacterial suspension equivalent to 1.0 McFarland standard was prepared and diluted in brucella broth supplemented with yeast extract, neopeptone, hematin, pyridoxal, and NAD. Test agents were added in the first row of the 96-well plates and serially diluted along the plates. Plates were then incubated at 37° C in the presence of 5% CO2 for 24 h. […] Plates were then incubated at 37 ° C in the presence of 5% CO2 for 24 h. The MBC was categorized as the lowest concentration that reduced bacterial growth by 99.9% [45, 46, 47].
# N. gonorrhoeae 197 = test: MIC/MBC against N. gonorrhoeae clinical isolate 197; assay type: cell-based; conditions: Neisseria gonorrhoeae
# Description: as §2
# N. gonorrhoeae 194 = test: MIC/MBC against N. gonorrhoeae clinical isolate 194; assay type: cell-based; conditions: Neisseria gonorrhoeae
# Description: as §2
# VRE. faecalis ATCC 51299 = test: MIC/MBC (CLSI broth microdilution) against VRE faecalis ATCC 51299; assay type: cell-based; conditions: Enterococcus, VRE faecalis ATCC 51299; for MBC: read-out: MBC; for MIC: read-out: MIC
# Description: as §1
# [5] = system: E. coli BW25113 (wild-type strain); test: MIC/MBC (CLSI broth microdilution) against E. coli BW25113 wild type; assay type: cell-based, Escherichia coli; conditions: E. coli BW25113 wild-type strain; for MBC: read-out: MBC
# Description: as §1
# N. gonorrhoeae WHO L = test: MIC/MBC against N. gonorrhoeae WHO L reference strain; assay type: cell-based; conditions: Neisseria gonorrhoeae
# Description: as §2
# VRE. faecalisATCC 51575 = test: MIC/MBC (CLSI broth microdilution) against VRE faecalis ATCC 51575; assay type: cell-based; conditions: Enterococcus, VRE faecalis ATCC 51575; for MBC: read-out: MBC; for MIC: read-out: MIC
# Description: as §1
# [6] = system: panel drug-resistant pathogenic N. gonorrhoeae strains; test: MIC/MBC against a panel of drug-resistant N. gonorrhoeae strains; assay type: cell-based, Neisseria gonorrhoeae; conditions: MBC the same as or one-fold higher than MIC
# VRE. faecium ATCC 700221 = test: MIC/MBC (CLSI broth microdilution) against VRE faecium ATCC 700221; assay type: cell-based; conditions: Enterococcus, VRE faecium ATCC 700221; for MBC: read-out: MBC; for MIC: read-out: MIC
# Description: as §1
# N. gonorrhoeae 166 = test: MIC/MBC against N. gonorrhoeae clinical isolate 166; assay type: cell-based; conditions: Neisseria gonorrhoeae
# Description: as §2
# N. gonorrhoeae 165 = test: MIC/MBC against N. gonorrhoeae clinical isolate 165; assay type: cell-based; conditions: Neisseria gonorrhoeae
# Description: as §2
# N. gonorrhoeae 200 = test: MIC/MBC against N. gonorrhoeae clinical isolate 200; assay type: cell-based; conditions: Neisseria gonorrhoeae
# Description: as §2
# [7] = system: human colorectal cells (Caco-2); test: In vitro cytotoxicity, MTS assay; assay type: cell-based
# Description: HSGN-237 and -238 were assayed for potential cytotoxicity against a human colorectal adenocarcinoma (Caco-2) cell line, as described previously. Briefly, tested compounds were incubated with caco-2 cells for 24 and 48 h. Then, the cells were incubated with MTS (3-(4,5-dimethylthiazol-2-yl)-5-(3-carboxymethoxyphenyl)-2-(4-sulfophenyl)-2H-tetrazolium) reagent for 4 h before measuring the absorbance values (OD490).
# Figure 2 In vitro cytotoxicity assessment of HSGN-237 and -238 (tested in triplicate) against human colorectal cells (Caco-2) after (A) 24 h, and (B) 48 h, using the 3-(4,5-dimethylthiazol-2-yl)-5-(3-carboxymethoxyphenyl)-2-(4-sulfophenyl)-2H-tetrazolium (MTS) assay. Results are presented as percent viable cells relative to DMSO (negative control). Error bars represent standard deviation values. A two-way ANOVA, with post hoc Dunnet’s multiple comparisons test, determined the statistical difference between the values obtained for the compound and DMSO. Asterisks denote statistically significant differences between treatments of cells with either HSGN-237 or -238 as compared to DMSO-treated cells. The experiment was repeated 3 independent times.
# [8] = Neisseria gonorrhoeae, N. gonorrhoeae strain 181, read-out: MIC
# [9] = Escherichia coli, read-out: MIC
Structure (SMILES),MBC [1],MIC [1],type of activity from MBC versus MIC [2],MBC (MRSA USA300),MIC (MRSA USA300),MIC (N. gonorrhoeae; 5% FBS added to the media),MIC (N. gonorrhoeae; 10% FBS added to the media),MBC (E. faecalis ATCC 29212),MBC (N. gonorrhoeae 197),MIC (N. gonorrhoeae 197),MBC (N. gonorrhoeae 194),MIC (N. gonorrhoeae 194),MBC (N. gonorrhoeae WHO L),MIC (N. gonorrhoeae WHO L),MBC (N. gonorrhoeae 166),MIC (N. gonorrhoeae 166),MBC (N. gonorrhoeae 165),MIC (N. gonorrhoeae 165),MBC (N. gonorrhoeae 200),MIC (N. gonorrhoeae 200),also measured
"O=C(Nc1nnc(-c2ccc(C(F)(F)F)cc2)o1)c1ccc(OC(F)(F)F)c(F)c1 [HSGN-235, 3-Fluoro-4-(trifluoromethoxy)-N-(5-(4-(trifluoromethyl)phenyl)-1,3,4-oxadiazol-2-yl)benzamide]",64 µg/mL,1 µg/mL,bacteriostatic agents,64 µg/mL,0.5 µg/mL,4 µg/mL,8 µg/mL,32 µg/mL,2 µg/mL,1 µg/mL,1 µg/mL,1 µg/mL,2 µg/mL,1 µg/mL,2 µg/mL,2 µg/mL,2 µg/mL,2 µg/mL,2 µg/mL,2 µg/mL,"MIC (E. faecalis ATCC 29212): 4 µg/mL; MBC (S. aureus ATCC 25923): > 64 µg/mL; MIC (S. aureus ATCC 25923): 1 µg/mL; MBC [3]: > 64 µg/mL; MIC [3]: 4 µg/mL; MIC ([4]; N. gonorrhoeae strain 181): moderate activity; MIC [4, 8]: 16 µg/mL; MBC (VRE. faecalis ATCC 51299): 64 µg/mL; MIC (VRE. faecalis ATCC 51299): 1 µg/mL; MIC [5]: >8 µg/mL; MBC ([5]; Escherichia coli): > 8 µg/mL; MIC [5, 9]: > 8 µg/mL; MBC (VRE. faecalisATCC 51575): > 64 µg/mL; MIC (VRE. faecalisATCC 51575): 2 µg/mL; type of activity from MBC versus MIC [6]: bactericidal activity; MBC (VRE. faecium ATCC 700221): 32 µg/mL; MIC (VRE. faecium ATCC 700221): 1 µg/mL"
"CC[C@H]1OC(=O)[C@H](C)[C@@H](O[C@H]2C[C@@](C)(OC)[C@@H](O)[C@H](C)O2)[C@H](C)[C@@H](O[C@@H]2O[C@H](C)C[C@H](N(C)C)[C@H]2O)[C@](C)(O)C[C@@H](C)CN(C)[C@H](C)[C@@H](O)[C@]1(C)O [Azithromycin, azithromycin, reference compound]",,,,,,,,,2 µg/mL,0.5 µg/mL,0.5 µg/mL,0.25 µg/mL,1 µg/mL,0.5 µg/mL,1 µg/mL,0.5 µg/mL,4 µg/mL,1 µg/mL,0.5 µg/mL,0.5 µg/mL,"MIC ([4]; Neisseria gonorrhoeae, 181): 256 µg/mL"
"O=C(Nc1nnc(-c2cccc(F)c2)o1)c1ccc(OC(F)(F)F)cc1 [HSGN-237, N-(5-(3-Fluorophenyl)-1,3,4-oxadiazol-2-yl)-4-(trifluoromethoxy)benzamide]",64 µg/mL,0.5 µg/mL,bacteriostatic agents,32 µg/mL,0.25 µg/mL,1 µg/mL,4 µg/mL,> 64 µg/mL,0.06 µg/mL,0.03 µg/mL,0.06 µg/mL,0.03 µg/mL,0.06 µg/mL,0.06 µg/mL,0.06 µg/mL,0.06 µg/mL,0.125 µg/mL,0.06 µg/mL,0.06 µg/mL,0.06 µg/mL,"MIC (N. gonorrhoeae; 1% FBS added to the media): 0.125 µg/mL; MIC (E. faecalis ATCC 29212): 1 µg/mL; MBC (S. aureus ATCC 25923): > 64 µg/mL; MIC (S. aureus ATCC 25923): 0.25 µg/mL; MBC [3]: 16 µg/mL; MIC [3]: 0.25 µg/mL; MIC [4, 8]: 0.125 µg/mL; MBC (VRE. faecalis ATCC 51299): 16 µg/mL; MIC (VRE. faecalis ATCC 51299): 0.5 µg/mL; MIC [5]: >8 µg/mL; MBC ([5]; Escherichia coli): > 8 µg/mL; MIC [5, 9]: > 8 µg/mL; non-toxic concentration ([7]; Caco-2 cells, 24 and 48 h, MTS assay): higher than 64 µg/mL; non-toxic concentration relative to MIC against N. gonorrhoeae ([7]; Caco-2 non-toxic concentration versus corresponding MIC): 512 times; MBC (VRE. faecalisATCC 51575): > 64 µg/mL; MIC (VRE. faecalisATCC 51575): 1 µg/mL; type of activity from MBC versus MIC [6]: bactericidal activity; MBC (VRE. faecium ATCC 700221): 8 µg/mL; MIC (VRE. faecium ATCC 700221): 0.5 µg/mL"
